Experimental data published in US6646006B2, “Enhancement of vascular function by modulation of endogenous nitric oxide production or activity” (The Board of Trustees of the Leland Stanford Junior …, priority 1993, dated 2003).

Tests used:
[1] = test system: Smooth muscle cells (SMC); experiment: Oxidized LDL-exposed aortic smooth muscle cells: MCP-1, superoxide anion, NFκB; format: cell-based, rabbit; conditions: DETA-NONOate 100 μM pre-exposure, oxLDL 30 μg/ml
Experimental: (§1) Methods and Results. Smooth muscle cells (SMC) were isolated from normal rabbit aortae by explant method. Cells were then exposed to oxidized LDL (30 μg/ml) (which is known to induce vascular cells to synthesize MCP-1). […] All of these effects of oxidized LDL cholesterol were reduced by previous exposure of the SMC to the NO-donor DETA-NONOate (100 μM) (p<0.05). To determine if NO exerted its effect at a transcriptional level, SMC and COS cells were transfected with a 400 bp fragment of the MCP-1 promoter. Enhanced promoter activity by oxLDL was inhibited by DETA-NO.

MCP-1 promoter = MCP-1 promoter activity in transfected SMC and COS cells; format: cell-based; conditions: 400 bp promoter fragment
Experimental: as §1

[2] = test system: hypercholesterolemic rabbits; experiment: Oral L-lysine in cholesterol-fed rabbits: vasorelaxation and histomorphometry; format: in vivo, rabbit; conditions: ten weeks
From the text: FIG. 9 is a set of dose-response curves showing the effect of chronic lysine administration on endothelium dependent vasodilation in hypercholesterolemic rabbits. […] Chronic administration of lysine was just as effective as arginine in restoring vascular function and structure. (See Ex. 14)
L-lysine is a basic amino acid like L-arginine, but is not known to be metabolized by NO synthase to NO. Therefore, the following results were unexpected. New Zealand white rabbits were fed a normal or high cholesterol chow (n=18). Half of the animals on the cholesterol diet also received oral L-lysine. After ten weeks, the thoracic aortae were harvested and bioassayed for vascular NO synthesis, and histomorphometry to assess lesion formation was performed as described above.

platelets = experiment: ADP-initiated platelet aggregation (nephelometry), platelets from treated rabbits; format: in vivo, rabbit; conditions: N-methylarginine 10^−4 M in vitro
Experimental: The effect of L-arginine supplementation on platelet reactivity in rabbits that had normal chow (Control; n=6), a 1% cholesterol diet (Chol; n=5), or a 1% cholesterol diet supplemented with oral arginine (Arg; n=6), as detailed above, was examined. Arterial blood obtained after central ear artery cannulation was anticoagulated with 13 mM sodium citrate. Platelet-rich suspension was prepared by washing platelets in calcium-free Krebs-Henseleit solution and resuspending them in Tyrode's solution with albumin. Aggregation was initiated by addition of adenosine diphosphate and monitored by standard nephelometric techniques. In platelets derived from Chol animals, aggregation was not different in rate or maximum extent in comparison to platelets from Control animals (A, in FIG. 2). By contrast, aggregation of platelets from Arg animals was reduced by 50% (B, in FIG. 2).
Therefore, the anti-platelet effect of chronic oral arginine administration can be credited to an increased synthesis of endogenous NO. Furthermore, NO synthesis may be induced in both the platelets and the endothelium.

[3] = test system: human aortic endothelial cells (HAEC); experiment: Flow-exposed human aortic endothelial cells: THP-1 monocyte binding after oxLDL or LPS/TNF; format: cell-based; conditions: oxLDL 30 μg/ml
Experimental: FIG. 6. Stimulation of cultured endothelial cells with fluid flow causes them to secrete nitric oxide. Flow-induced secretion of nitric oxide decreases endothelial adhesiveness induced by oxidized LDL cholesterol (oxLDL; 30 μg/ml). Exposure of human aortic endothelial cells to oxLDL increased the ex vivo binding of monocytes when compared to Control. In comparison to cells not exposed to flow (static), previous exposure to flow inhibited the monocyte adhesion induced by oxLDL. These effects of flow were blocked by NO synthase inhibitors and mimicked by NO donors (PAPA-NO) or cyclic GMP (cGMP). Bars represent mean±SEM. *p<0.05; **p<0.01. (See Ex. 8)
Methods and Results: Confluent monolayers of human aortic endothelial cells (HAEC) were exposed to static or fluid flow conditions for 4 hours (fluid flow stimulates the production of endogenous nitric oxide). Medium was then replaced and cells were then incubated with native LDL (50 μg/ml), oxidized LDL (30 μg/ml), or LPS (10 ng/ml)+TNF-α (10 U/ml) for an additional 4 hours. Functional binding assays utilizing THP-1 monocytes were then performed. Superoxide production by HAECs was monitored by lucigenin chemiluminescence and expression of the adhesion molecules VCAM-1 and ICAM-1 was quantitated by flow cytometry. […] Previous exposure to fluid flow inhibited endothelial adhesiveness for monocytes (FIG. 6) and the other sequelae of exposure to cytokines or oxidized lipoprotein.

[4] = test system: hypercholesterolemic rabbits; conditions: vs 1% cholesterol diet alone, ten weeks
From the text: At ten weeks animals were sacrificed for studies of platelet and vascular reactivity, and histomorphometry.

Compound: NCCN(CCN)/[N+]([O-])=N/O [DETA-NONOate]
- activity of NFκB induced by oxidized LDL [1]: reduced
- expression of MCP-1 induced by oxidized LDL [1]: reduced
- generation of superoxide anion induced by oxidized LDL [1]: reduced
- MCP-1 promoter activity enhanced by oxLDL (MCP-1 promoter): inhibited

Compound: NCCCC[C@H](N)C(=O)O [L-lysine]
- vascular NO activity (endothelium-dependent vasorelaxation) [2]: just as effective as L-arginine
- vascular lesion formation / plaque area [2]: marked reduction
- vascular NO activity (endothelium-dependent vasorelaxation) ([2]; listed as lysine): improved

Compound: CN[C@@H](CCCNC(=N)N)C(=O)O [N-methylarginine, reference compound]
- reversal of the arginine-induced reduction of platelet reactivity (platelets): could be reversed
- reversal of the arginine-induced reduction of platelet reactivity (platelets; listed as LNMMA): reverses

Compound: CCCN(CCCN)/[N+]([O-])=N/O [PAPA-NONOate]
- mimicry of the effects of flow on monocyte adhesion [3]: mimicked the effects of flow
- mimicry of the effects of flow on monocyte adhesion ([3]; listed as PAPA-NO): mimicked

Compound: Nc1nc2c(ncn2[C@@H]2O[C@@H]3COP(=O)(O)O[C@H]3[C@H]2O)c(=O)[nH]1 [cGMP, cyclic guanosine monophosphate]
- mimicry of the effects of flow on monocyte adhesion [3]: mimicked

Compound: CSCC[C@H](N)C(=O)O [methionine]
- endothelium-dependent relaxation [4]: not different
- intimal thickness [4]: not different
- platelet aggregation [4]: not different
